Consider 2 substances from patent US8715949B2, “Applications of the binding interaction of proanthocyanidins with bacteria and bacterial components” (priority 2006, dated 2014).

Data set [1] is described as follows: Stationary LPS-FITC binding assay on glass waveguide-immobilized PACs. To be noted: patterned from 10 mg/mL solutions; LPS-FITC incubated 1 hour. Also noted: species or system E. coli. From the text:
To determine the ability of PAC materials to effectively bind bacteria and bacterial cell components upon immobilization to a solid support, PACs from cranberry and grape juices were covalently attached to the surface of a glass microscope slide (waveguide) using a modification of a common technique used for protein immobilization (Rowe et al., Anal. Chem., 71, 3846 (1999)). Catechin monomer and buffer only areas were also included as controls. Briefly, the waveguides, glass microscope slides (Daigger, Wheeling, Ill.), were cleaned by immersion in potassium hydroxide/methanol solution (Cras et al., Biosens. Bioelectron., 14, 683 (1999)) followed by rinsing and drying. The clean waveguides were then incubated with 2% (3-mercaptopropyl)triethoxysilane (Pierce Chemicals, Rockford, Ill.) in toluene for 45 minutes followed by rinsing and drying. The slides were immersed in 1.8 mM N-[p-maleimidophenyl]isocyanate (PMPI) in ethanol for 1 hour. The maleimide-group of PMPI reacts with the sulfhydryl-group provided by the silane reaction leaving the isocyanate-group free to react with the hydroxyl-groups of PACs. […]
The ability of the immobilized PACs to bind LPS was investigated using a stationary assay. […] Slides were imaged using evanescent wave fluorescence spectroscopy with excitation at 496 nm and emission collected above 515 nm. […]

Data set [2] has as its system HEK 293 cells stably expressing human CD14 and TLR4/MD2. Put plainly: LPS membrane binding in HEK-CD14-TLR4/MD2 cells. To be noted: 25 nM LPS, 1.5 h, 37° C.; 0.5 μM PAC; antibodies 500 nM in binding sites. The class given is cell-based. As for the experimental part: Human embryonic kidney cells (HEK 293) stably expressing human CD14 and TLR4/MD2 (HEK-CD14-TLR4/MD2; Invivogen) were grown in chambered wells and incubated with 25 nM LPS (E. coli serotype 055:B5, Sigma) in the absence or presence of 0.5 μM LH20 PAC (Dial>6K) for 1.5 h at 37° C. […] After incubation, the cells were washed with PBS (10 min) twice and either fixed (with 3.7% paraformaldehyde) to assess LPS membrane binding or fixed and permeabilized (with 0.1% Triton X-100) to determine LPS internalization. After blocking with 1% normal goat serum, membrane bound or internalized LPS was detected using a goat anti-LPS antibody (O/K serotype-specific, Abeam) conjugated to fluorescein. Nuclei were counterstained with DAPI. Imaging was performed using an Olympus IX-71 microscope. The relative amounts of membrane-associated or intracellular fluorescence were quantified by image analysis using Image J software (NIH, v. 1.37). Data is reported as the mean channel fluorescence from membrane-associated or internalized LPS and represents the analysis of 10 to 20 cells from each sample (minimum 10 measurements per each cell). Merged images were produced using Photoshop CS2 (ver. 9).

Data set [3] is described as follows: Pull-down of FITC-LPS by PAC beads after equilibration with lipid A. The class given is binding, E. coli. To be noted: lipid A concentrations as high as 100 μM.
Protocol: Fluorescence-based pull down assays for lipopolysaccharide (LPS) were conducted in 50 mM TRIS at pH 8.0 using Sepharose-immobilized PACs and agarose-immobilized polymyxin B (Sigma-Aldrich, St. Louis, Mo.). Immobilized capture molecules and LPS were incubated at room temperature for 1 hour with constant agitation followed by rinsing and transfer to a 96-well plate. The fluorescence of the FITC-labeled LPS (from E. coli 055:B5; Sigma-Aldrich) was measured using a Tecan XSafire monochrometer-based micro plate reader at 495 nm excitation and 520 nm emission (5 nm bandwidths).
To further investigate this potential interaction, an assay for the presence of FITC-LPS using PAC-beads was conducted after equilibration of the PAC beads with varying concentrations of lipid A (FIG. 11). Assays were conducted with 3 μg/mL FITC-LPS (approx. 3 nM).
Another data set concerns HEK-CD14-TLR4/MD2 cells. Nature of the data set: Cytotoxicity, cell proliferation assay (CellTiter96). The class given is cell-based, human. To be noted: 48 h culture. As for the experimental part: Cellular toxicity was measured using a […] cell proliferation assay (CellTiter96™, Promega). HEK-CD14-TLR4/MD2 cells were seeded into the wells of a 96-well plate (1×10^4 cells/well) and cultured with a dose range of test compounds for 48 h prior to assay according to the manufacturer's instructions.

For catechin, the “binding of LPS-FITC by substance immobilized on glass waveguide” value in data set [1] was “no binding even at the highest concentrations tested”.
As to diphosphoryl lipid A, the “decrease in membrane-bound LPS” value in data set [2] is “did not significantly reduce LPS membrane binding”. Further, in data set [3], the “inhibition of FITC-LPS binding by immobilized PACs at high lipid A concentration” value is no more than 80%. The “concentrations at which toxicity was not elicited” value with HEK-CD14-TLR4/MD2 cells was “below 3 μM”.
